In PubChem BioAssay AID1259407 (Chemical Carcinogenesis Research Information System (CCRIS), 2018) one finds mutagenic call data, which are given here for five compounds.

This series has as its system CCRIS mutagenicity, Ames/micronucleus/aberration tests. The experiment in a line: CCRIS mutagenicity studies.

Molecules are shown by their SMILES. Calls of active or inactive are those of the source. No rule for the calls is given here.

`CCN(CCC#N)c1cc(NC(C)=O)c(-n2nc3c(Br)cc(N)c(Cl)c3n2)cc1OC`: the mutagenic call (Test System: AMES SALMONELLA TYPHIMURIUM, Strain/Indicator: TA98, Metabolic Activation: RAT LIVER S-9, AROCLOR 1254, Method: STANDARD PLATE) was “active; positive”; the mutagenic call (Test System: AMES SALMONELLA TYPHIMURIUM, Strain/Indicator: TA100, Metabolic Activation: RAT LIVER S-9, AROCLOR 1254, Method: STANDARD PLATE) was “active; positive”; the mutagenic call (Test System: AMES SALMONELLA TYPHIMURIUM, Strain/Indicator: TA104, Metabolic Activation: RAT LIVER S-9, AROCLOR 1254, Method: STANDARD PLATE) is “active; positive”; the mutagenic call (Test System: AMES SALMONELLA TYPHIMURIUM, Strain/Indicator: YG1024, Metabolic Activation: RAT LIVER S-9, PHENOBARBITAL, 5,6-BENZOFLAVONE (10%), Method: PREINCUBATION) was “active; positive”.
As to `Cc1c2cc(CO)ccc2nc2c1ccc1ccccc12`, the mutagenic call (Test System: AMES SALMONELLA TYPHIMURIUM, Strain/Indicator: TA100, Metabolic Activation: RAT, LIVER, S-9, AROCLOR 1254, Method: STANDARD PLATE) was “active; positive”.
With `CC1(C)CCCC(C)(C)N1[O]`, the mutagenic call by setting is: (Test System: AMES SALMONELLA TYPHIMURIUM, Strain/Indicator: TA98, Metabolic Activation: NONE, Method: STANDARD PLATE) “inactive; negative”; (Test System: AMES SALMONELLA TYPHIMURIUM, Strain/Indicator: TA100, Metabolic Activation: NONE, Method: STANDARD PLATE) “inactive; negative”; (Test System: AMES SALMONELLA TYPHIMURIUM, Strain/Indicator: TA102, Metabolic Activation: NONE, Method: STANDARD PLATE) “inactive; negative”.
Regarding `COc1cc(N=Nc2ccccc2)ccc1N`, the mutagenic call runs as follows: (Test System: AMES SALMONELLA TYPHIMURIUM, Strain/Indicator: TA98, Metabolic Activation: RAT LIVER, CYTOSOL, AROCLOR 1254, Method: PREINCUBATION) “inactive; negative”; (Test System: AMES SALMONELLA TYPHIMURIUM, Strain/Indicator: TA98, Metabolic Activation: RAT LIVER, MICROSOMES, AROCLOR 1254, Method: PREINCUBATION) “active; positive”; (Test System: AMES SALMONELLA TYPHIMURIUM, Strain/Indicator: TA98, Metabolic Activation: RAT, LIVER, MICROSOMES, 3-METHOXY-4-AMINOAZOBENZENE, Method: PREINCUBATION) “inactive; negative”; (Test System: AMES SALMONELLA TYPHIMURIUM, Strain/Indicator: TA98, Metabolic Activation: RAT, LIVER, MICROSOMES, AROCLOR 1254, Method: PREINCUBATION) “active; positive”; (Test System: AMES SALMONELLA TYPHIMURIUM, Strain/Indicator: TA98, Metabolic Activation: RAT, LIVER, MICROSOMES, Method: PREINCUBATION) “inactive; negative”; (Test System: AMES SALMONELLA TYPHIMURIUM, Strain/Indicator: TA98, Metabolic Activation: RAT, LIVER, S-9, AROCLOR 1254, Method: STANDARD PLATE) “active; positive”. The mutagenic call is “active; positive” (Test System: AMES SALMONELLA TYPHIMURIUM, Strain/Indicator: TA98, Metabolic Activation: RAT, LIVER, S-9, KC500 OR PHENOBARBITAL, Method: LIQUID SUSPENSION); “active; positive” (Test System: AMES SALMONELLA TYPHIMURIUM, Strain/Indicator: TA100, Metabolic Activation: RAT, LIVER, S-9, KC500 OR PHENOBARBITAL, Method: LIQUID SUSPENSION); “active; positive” (Test System: AMES SALMONELLA TYPHIMURIUM, Strain/Indicator: TA1538, Metabolic Activation: RAT, LIVER, S-9, AROCLOR 1254, Method: STANDARD PLATE).
Turning to `Cc1nn(C)c(Oc2ccccc2)c1/C=N/OCc1ccc(C(=O)OC(C)(C)C)cc1`, the mutagenic call (End Point: In vitro chromosomal aberrations, Test System: Human lymphocytes/Male, Metabolic Activation: None) is “inactive; negative”; the mutagenic call (End Point: In vitro chromosomal aberrations, Test System: Human lymphocytes/Male, Metabolic Activation: Rat, Liver, S-9) was “inactive; negative”; the mutagenic call (End Point: In vivol micronucleus, Species: Mouse, Strain/Sex: CD-1, Route: Oral) is “inactive; negative”.
